The test deals with C57BL mice, shaved dorsal area (hair growth). The experiment in a line: Hair growth stimulatory effect measurement test in shaved mouse model. In kind it is in vivo. As for the experimental part: Hair Growth Stimulatory Effect Measurement Test in Shaved Mouse Model
Dorsal hair of each of C57BL mice (female, about 7-week old) was shaved, and 200 μL of each of test compounds (90 mM) dissolved into 99% ethanol was applied to the shaved area once a day for 40 days from the day 3 after the shaving. As the evaluated compounds, the compound of the present invention and the compound (GPI-1511) disclosed in International Publication No. WO98/55090 were used. As a control, a group in which 200 μL of the vehicle was applied was used.
A hair growth state of the shaved area of each of 10 to 12 mice of each group was rated every 2 or 3 days after the start of administration by using the following hair growth score criteria.
(Hair Growth Score Criteria)
2=hair growth in less than 30% of shaved area
3=hair growth in 30% or more and less than 60% of shaved area
4=hair growth in 60% or more and less than 90% of shaved area
5=hair growth in 90% or more of shaved area

With `COc1ccc(OCc2nc([C@@H]3CCCN3C(=O)C(F)(F)C3(O)CC(C)(C)CC(C)(C)C3)no2)cc1OC` [compound of the present invention, 1-[2-((2S)-2-{5-[(3,4-dimethoxyphenoxy)methyl]-1,2,4-oxadiazol-3-yl}pyrrolidin-1-yl)-1,1-difluoro-2-oxoethyl]-3,3,5,5-tetramethylcyclohexanol], the “increase in hair growth score from the day 19 of the administration” value (18 μmol topical once a day, from day 19 of administration) is “remarkable”. Also, under “18 μmol topical once a day, over the whole test period”, the “hair growth score compared to the group with GPI-1511” value is “higher than that of the group with GPI-1511 over the whole test period”. Further, for the setting “female, 18 μmol (200 μL of 90 mM in 99% ethanol) applied to the shaved area once a day for 40 days, score 1-5, FIG. 1”, the “hair growth score compared to the vehicle (control) group” value is on record as “an increase in hair growth score was exhibited from an early stage”.

The values above are taken from patent publication US20100022604A1, “PROPHYLACTIC OR THERAPEUTIC AGENT FOR ALOPECIA” (TAISHO PHARMACEUTICAL CO., LTD., priority 2006, published 2010).
